# From patent US9988371B2, “Benzimidazole analogues and related methods” (The Arizona Board of Regents, on Behalf of the University …, priority 2014, dated 2018)
# pIC50: −log10 of the molar value.
# Assays:
# [1] = molecular target: gatekeeper mutant RETV804M (Homo sapiens, UniProt P07949, V804M); test: RET/V804M kinase assay; conditions: biochemical assay; exact potency beyond measurable limit
# Procedure: Suitable screening assays for RET and VEGFR2 small molecule kinase inhibitors (from a kinase-directed fragment (KDF) library) were established. The RET kinase assay utilizes an EZ Reader Electrophoresis Mobility Chip Instrument (Caliper Life Science). In the assay, 2 nM recombinant RET enzyme (Invitrogen) is pre-incubated with a small molecule inhibitor or control buffer for 30 min to allow the Type-II kinase inhibitor to trap the DFG-out conformation to which the inhibitors bind. This class of inhibitors is indirectly competitive with ATP, and slow binding kinetics (low kd) allow the inhibitors to appear non-competitive and pseudo-irreversible in nature. Because of the non-competitive nature of these inhibitors, a more biologically relevant concentration of ATP substrate (200 μM) was incorporated in this assay. After 30 min of pre-incubation, a substrate mix containing […], 20 mM MgCl2 and 1.5 μM fluorescently labeled RET substrate peptide (Caliper LS, peptide 22; Perkin Elmer, USA) was added. The conversion level of the RET substrate peptide was then determined utilizing the EZ Reader instrument. Similarly, VEGFR2 and RET/V804M kinase assays have also been established using the same peptide substrate.
# [2] = system: pMAPK; test: pMAPK immunoblot in TT cells; assay type: cell-based, human; conditions: 1 nM
# Procedure: FIG. 3: Photographs of blots showing inhibition of RET protein endogenously expressed in TT cells (human MTC cell line expressing RET/C634W) by indicated concentrations of Pz-1 or vehicle (NT: not treated) and reduced effects in thyroid non-transformed Nthy-ori-3-1 cells. Serum-starved human TT and thyroid non-transformed Nthy-ori-3-1 cell lines were treated for 2 hr with indicated concentrations of Pz-1. 50 μg of total cell lysates were subjected to immunoblotting with anti-phospho-Y1062 (αp1062) and anti-phospho-905 (αpY905) RET antibodies, anti-phospho-MAPK (αpMAPK, T302/Y304), and anti-phospho-SHC (αpSHC, Y317) antibodies. The blots were normalized using anti-RET (αRET) and anti-SHC (αSHC).
# The inhibition of RET auto-phosphorylation by Pz-1 was measured in several different cell lines including NIH3T3 fibroblasts expressing RET/C634Y or RET/M918T, TT expressing RET/C634W (MTC), Nthy-ory-3-1 (thyroid, non-transformed with RET; negative control), HEK293/RET/PTC1 (CCDC6-RET that can be found in PTC & lung cancer), HEK293/RET-KIF5B (that can be found in lung cancer), HEK293/RET/PTC3 (NCOA4-RET, that can be found in PTC & lung cancer), and HEK293 transfected with RET/C634R-V804M (FIGS. 1-3). […]
# Protein lysates were prepared according to standard procedures. […] Immune complexes were detected with the enhanced chemiluminescence kit (Amersham Pharmacia Biotech, Little Chalfort, UK). […]
# Sequence of gatekeeper mutant RETV804M (P07949 29-1114 V804M): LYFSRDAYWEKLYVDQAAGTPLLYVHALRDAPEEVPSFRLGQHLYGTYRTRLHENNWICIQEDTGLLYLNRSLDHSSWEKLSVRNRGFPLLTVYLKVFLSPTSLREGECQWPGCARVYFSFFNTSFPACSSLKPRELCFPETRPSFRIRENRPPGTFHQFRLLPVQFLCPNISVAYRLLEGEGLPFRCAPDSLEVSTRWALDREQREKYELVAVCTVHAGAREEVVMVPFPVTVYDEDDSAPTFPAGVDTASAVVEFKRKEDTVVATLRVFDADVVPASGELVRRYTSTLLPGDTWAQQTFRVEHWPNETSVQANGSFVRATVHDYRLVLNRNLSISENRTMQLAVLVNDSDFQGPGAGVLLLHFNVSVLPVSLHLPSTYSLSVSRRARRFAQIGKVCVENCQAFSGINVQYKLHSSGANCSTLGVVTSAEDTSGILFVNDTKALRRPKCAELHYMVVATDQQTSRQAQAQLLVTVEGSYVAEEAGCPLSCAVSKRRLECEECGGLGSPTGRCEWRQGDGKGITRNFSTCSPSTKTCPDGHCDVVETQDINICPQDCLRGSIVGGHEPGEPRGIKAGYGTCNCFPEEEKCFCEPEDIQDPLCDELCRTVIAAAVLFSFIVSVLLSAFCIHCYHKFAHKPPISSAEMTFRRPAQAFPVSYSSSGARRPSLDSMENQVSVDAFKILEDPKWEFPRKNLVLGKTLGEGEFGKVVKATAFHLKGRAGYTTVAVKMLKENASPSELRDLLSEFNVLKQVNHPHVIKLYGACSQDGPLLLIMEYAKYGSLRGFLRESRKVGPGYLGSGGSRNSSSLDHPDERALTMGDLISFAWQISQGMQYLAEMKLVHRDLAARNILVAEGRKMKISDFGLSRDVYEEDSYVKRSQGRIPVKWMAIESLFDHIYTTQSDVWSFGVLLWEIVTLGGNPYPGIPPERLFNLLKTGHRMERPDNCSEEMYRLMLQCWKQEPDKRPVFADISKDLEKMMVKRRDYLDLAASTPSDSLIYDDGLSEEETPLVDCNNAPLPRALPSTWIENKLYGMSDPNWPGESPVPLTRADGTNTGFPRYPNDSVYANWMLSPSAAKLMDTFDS
structure (smiles),measurement,setting,value
"Cn1cc(-c2ccc3c(c2)ncn3-c2ccc(CC(=O)Nc3cc(C(C)(C)C)on3)cc2)cn1 [Pz-1, N-(5-(tert-butyl)isoxazol-3-yl)-2-(4-(5-(1-methyl-1H-pyrazol-4-yl)-1H-benzo[d]imidazol-1-yl)phenyl)acetamide]",pIC50,[1],> 9.00
same,inhibition of pMAPK,[2],strongly inhibited
